For five compounds, Activity and ED50 results are on record in ChEMBL document CHEMBL3272348, “Synthesis and pharmacology of 2,9alpha-dimethyl-2'-hydroxy-6,7-benzomorphan” (J Med Chem, 1976).

Data set [1] deals with Rhesus monkey. The data set can be described thus: Narcotic antagonist activity in morphine-dependent monkey. In kind it is functional, organism-based. The settings on record: Macaca mulatta.
The subject of data set [2] is Rhesus monkey. As to the kind of experiment: Precipitation of abstinence syndrome of long duration in morphine-dependent monkey assessed as irritability. It counts as ADME, organism-based, Macaca mulatta. The settings on record: in vivo.
In data set [3] the test system is Mus musculus. The data set can be described thus: Analgesic activity in sc dosed white mouse by hot plate method. In kind it is functional. On the technique in general: In hot-plate and tail-flick tests a longer latency is read as antinociception.
In data set [4] the test system is Rhesus monkey. The data set can be described thus: Precipitation of abstinence syndrome of long duration in morphine-dependent monkey assessed as movement within cage. The settings on record: in vivo. It counts as ADME, organism-based, Macaca mulatta.
The test system of data set [5] is Rhesus monkey. The data set can be described thus: Precipitation of abstinence syndrome of long duration in morphine-dependent monkey assessed as abdominal cramps. In kind it is ADME, organism-based, Macaca mulatta, Abdomen. The settings on record: in vivo.
For data set [6], the system named is Rhesus monkey. As to the kind of experiment: Precipitation of abstinence syndrome of long duration in morphine-dependent monkey assessed as hyperexcitability. It counts as ADME, organism-based, Macaca mulatta. The settings on record: in vivo.

Activity calls are given as the source filed them. No cut-off for these calls is given here.

In the case of `CN1CC[C@@H]2CC1Cc1ccc(O)cc12`, in data set [1], the outcome was Active.

A word on the ED50: it is the dose at which the effect has come halfway, by size or by number of responders. On to `C[C@@H]1C2Cc3ccc(O)cc3[C@@H]1CCN2C`, for which the Activity result is “Toxic” in data set [2], “Non-toxic” in data set [4], “Toxic” in data set [5] and “Non-toxic” in data set [6]. The median effective dose (ED50) in data set [3] was 1.1 mg/kg. In addition, in data set [1], the result was Active.

On to `C[C@H]1C2Cc3ccc(O)cc3[C@@H]1CCN2C`, for which the Activity result is given as “Toxic” in data set [2], “Non-toxic” in data set [4], “Toxic” in data set [5] and “Non-toxic” in data set [6]. Moreover, in data set [3], the ED50 worked out at 4.3 mg/kg.

Regarding `CCOC(=O)C1(c2ccccc2)CCN(C)CC1` [MEPERIDINE], the ED50 in data set [3] worked out at 4.5 mg/kg.

With `CN1CC[C@]23c4c5ccc(O)c4O[C@H]2[C@@H](O)C=C[C@H]3[C@H]1C5` [MORPHINE], in data set [3], the ED50 is 1.2 mg/kg.
